Literature values as cited in patent US20160317408A1, “KERATIN FIBRE DYEING METHOD” (ALFA PARF GROUP S.p.A., priority 2015, published 2016).

Assays:
[1] = SCCS Opinion 1509/13, Memorandum on hair dye chemical sensitisation
[2] = value assigned from SCCS memorandum class; composition containing the dye

Nc1ccc(OCCO)c(N)c1 [2,4-diaminophenoxyethanol]
sensitising power classification [1]: Moderate | individual sensitisation index value of the dye [2]: 2

Nc1ncccc1O [2-Amino-3-hydroxypyridine]
sensitising power classification [1]: not classifiable

Cc1c(O)cccc1O [2-methylresorcinol]
sensitising power classification [1]: Moderate | individual sensitisation index value of the dye [2]: 2

Oc1ccc(Cl)c(O)c1 [4-chlororesorcinol]
sensitising power classification [1]: Moderate | individual sensitisation index value of the dye [2]: 2

Nc1ccc(N(CCO)CCO)cc1 [N,N-bis(2-hydroxyethyl)-p-phenylenediamine]
sensitising power classification [1]: Strong | individual sensitisation index value of the dye [2]: 1

Nc1ccc(NCCO)cc1 [hydroxyethyl-p-phenylenediamine]
sensitising power classification [1]: Strong

Nc1ccc(N)cc1 [p-phenylenediamine]
sensitising power classification [1]: Extreme | individual sensitisation index value of the dye [2]: 0

Oc1cccc(O)c1 [resorcinol]
sensitising power classification [1]: Strong
